Measured values taken from patent publication US11753407B2, “Compounds for treating spinal muscular atrophy” (PTC Therapeutics, Inc., priority 2012, dated 2023).

What was measured:
[1] = tested on: Smn protein in SMA patient fibroblast cells (GM03813); assay: Smn protein assay in cultured cells (SMN HTRF); assay type: cell-based, human; conditions: SMA patient fibroblast cells, 48 hours; for EC1.5x for Smn protein expression: 7-point concentration curve, SMN HTRF, concentration producing 1.5 times Smn protein vs DMSO vehicle control; for maximum fold (Fold) increase of Smn protein: 7-point concentration data, fold relative to vehicle control
Summary of the method: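 SMA patient fibroblasts (5,000 cells/well, DMEM-10% FBS) were treated for 48 h at 37 °C with a 7-point, 3.16-fold dilution series in triplicate. RIPA lysates were probed by HTRF (anti-SMN d2/kryptate, overnight, room temperature), reading 665/620 nm. EC1.5× is the concentration giving 1.5-fold Smn over DMSO vehicle.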

[2] = tested on: SMN2 minigene mRNA (SMN2-A minigene) in HEK293H cells; assay: SMN2 minigene mRNA splicing RT-qPCR assay in cultured cells; assay type: cell-based, human; conditions: Homo sapiens, HEK293-H; concentration increasing full length SMN2 mRNA 1.5-fold relative to vehicle-treated cells; HEK293H cells with SMN2-A minigene, 24 hours, 7-point concentration data; read-out: EC1.5x for production of full length SMN2 mRNA
Summary of the method: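 HEK293H cells stably carrying the SMN2-A minigene were treated for 24 h at 37 °C with a 7-point, 3.16-fold dilution series of compound. Multiplex RT-qPCR measured exon 7-containing minigene FL mRNA against GAPDH, expressed relative to vehicle by modified ΔΔCt; the EC1.5× is the concentration giving a 1.5-fold increase.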

Row | SMILES | EC1.5x for Smn protein expression [1] | maximum fold (Fold) increase of Smn protein [1] | EC (1.5-fold increase) [2]
1 | CCc1cc(-c2cc(=O)n3cc(N4C[C@@H](C)N[C@@H](C)C4)ccc3n2)cn2cc(C)nc12 [Compound 675, 7-[(3R,5S)-3,5-dimethylpiperazin-1-yl]-2-(8-ethyl-2-methylimidazo[1,2-a]pyridin-6-yl)-4H-pyrido[1,2-a]pyrimidin-4-one] | **** (an EC1.5x≤0.3 μM is indicated by four stars (****)) | ***** (a fold increase >1.65 is indicated by five stars (*****)) | < 0.1 µM
2 | CCc1cc(-c2cc(=O)n3cc(N4CCCN(C)CC4)ccc3n2)cn2cc(C)nc12 [Compound 676, 2-(8-ethyl-2-methylimidazo[1,2-a]pyridin-6-yl)-7-(4-methyl-1,4-diazepan-1-yl)-4H-pyrido[1,2-a]pyrimidin-4-one] | *** (an EC1.5× between >0.3 μM and ≤1 μM is indicated by three stars (***)) | ***** (a fold increase >1.65 is indicated by five stars (*****)) | < 0.1 µM
3 | CCN1CCC(c2cc(C)c3nc(-c4cc5c(C)nc(C)cn5n4)cc(=O)n3c2)CC1 [Compound 702, 2-(4,6-dimethylpyrazolo[1,5-a]pyrazin-2-yl)-7-(1-ethylpiperidin-4-yl)-9-methyl-4H-pyrido[1,2-a]pyrimidin-4-one] | **** (an EC1.5x≤0.3 μM is indicated by four stars (****)) | ***** (a fold increase >1.65 is indicated by five stars (*****)) | < 0.1 µM
4 | Cc1cn2cc(-c3cc(=O)n4cc(N5CCN[C@H](C)C5)ccc4n3)cc2c(C)n1 [Compound 713, 2-(1,3-dimethylpyrrolo[1,2-a]pyrazin-7-yl)-7-[(3R)-3-methylpiperazin-1-yl]-4H-pyrido[1,2-a]pyrimidin-4-one] | **** (an EC1.5x≤0.3 μM is indicated by four stars (****)) | ***** (a fold increase >1.65 is indicated by five stars (*****)) | < 0.1 µM
5 | Cc1cn2nc(-c3cc(=O)n4cc(CCCN)ccc4n3)cc2c(C)n1 [Compound 742, 7-(3-aminopropyl)-2-(4,6-dimethylpyrazolo[1,5-a]pyrazin-2-yl)-4H-pyrido[1,2-a]pyrimidin-4-one] | *** (an EC1.5× between >0.3 μM and ≤1 μM is indicated by three stars (***)) | ***** (a fold increase >1.65 is indicated by five stars (*****)) | 0.1 to 0.3 µM
6 | Cc1cc(N2CCN[C@H](C)C2)cn2c(=O)cc(-c3ccc4nn(C)cc4c3)nc12 [Compound 755, 9-methyl-2-(2-methyl-2H-indazol-5-yl)-7-[(3R)-3-methylpiperazin-1-yl]-4H-pyrido[1,2-a]pyrimidin-4-one] | **** (an EC1.5x≤0.3 μM is indicated by four stars (****)) | ***** (a fold increase >1.65 is indicated by five stars (*****)) | < 0.1 µM
7 | Cc1cc(N2CCN[C@@H](C)C2)cn2c(=O)cc(-c3ccc4nn(C)cc4c3)nc12 [Compound 756, 9-methyl-2-(2-methyl-2H-indazol-5-yl)-7-[(3S)-3-methylpiperazin-1-yl]-4H-pyrido[1,2-a]pyrimidin-4-one] | **** (an EC1.5x≤0.3 μM is indicated by four stars (****)) | ***** (a fold increase >1.65 is indicated by five stars (*****)) | < 0.1 µM
8 | CCc1nc(C)cn2nc(-c3cc(=O)n4cc(C5=CCNCC5)cc(C)c4n3)cc12 [Compound 773, 2-(4-ethyl-6-methylpyrazolo[1,5-a]pyrazin-2-yl)-9-methyl-7-(1,2,3,6-tetrahydropyridin-4-yl)-4H-pyrido[1,2-a]pyrimidin-4-one] | **** (an EC1.5x≤0.3 μM is indicated by four stars (****)) | ***** (a fold increase >1.65 is indicated by five stars (*****)) | < 0.1 µM
9 | CCc1nc(C)cn2nc(-c3cc(=O)n4cc(C5CCN(C)CC5)cc(C)c4n3)cc12 [Compound 774, 2-(4-ethyl-6-methylpyrazolo[1,5-a]pyrazin-2-yl)-9-methyl-7-(1-methylpiperidin-4-yl)-4H-pyrido[1,2-a]pyrimidin-4-one] | **** (an EC1.5x≤0.3 μM is indicated by four stars (****)) | ***** (a fold increase >1.65 is indicated by five stars (*****)) | < 0.1 µM
10 | CCNC[C@@H]1CCN(c2ccc3nc(-c4cc5c(C)nc(C)cn5n4)cc(=O)n3c2)C1 [Compound 779, 2-(4,6-dimethylpyrazolo[1,5-a]pyrazin-2-yl)-7-{(3S)-3-[(ethylamino)methyl]pyrrolidin-1-yl}-4H-pyrido[1,2-a]pyrimidin-4-one] | **** (an EC1.5x≤0.3 μM is indicated by four stars (****)) | ***** (a fold increase >1.65 is indicated by five stars (*****)) | < 0.1 µM
11 | CCc1nc(C)cn2nc(-c3cc(=O)n4cc(C5CCN(CC)CC5)cc(C)c4n3)cc12 [Compound 790, 2-(4-ethyl-6-methylpyrazolo[1,5-a]pyrazin-2-yl)-7-(1-ethylpiperidin-4-yl)-9-methyl-4H-pyrido[1,2-a]pyrimidin-4-one] | **** (an EC1.5x≤0.3 μM is indicated by four stars (****)) | ***** (a fold increase >1.65 is indicated by five stars (*****)) | < 0.1 µM
12 | Cc1cn2cc(-c3cc(=O)n4cc(N5CCN(CCO)CC5)ccc4n3)cc(F)c2n1 [Compound 801, 2-(8-fluoro-2-methylimidazo[1,2-a]pyridin-6-yl)-7-[4-(2-hydroxyethyl)piperazin-1-yl]-4H-pyrido[1,2-a]pyrimidin-4-one] | *** (an EC1.5× between >0.3 μM and ≤1 μM is indicated by three stars (***)) | ***** (a fold increase >1.65 is indicated by five stars (*****)) | 0.1 to 0.3 µM
13 | CN1CCN(c2ccc3nc(-c4ccc5nccn5c4)cc(=O)n3c2)CC1 [Compound 802, 2-(imidazo[1,2-a]pyridin-6-yl)-7-(4-methylpiperazin-1-yl)-4H-pyrido[1,2-a]pyrimidin-4-one] | * (An EC1.5× for Smn protein expression between >3 μM and ≤10 μM is indicated by one star (*)) | ***** (a fold increase >1.65 is indicated by five stars (*****)) | 1 to 3 µM
14 | Cc1nc2c(F)cc(-c3cc(=O)n4cc(N5CCN6CCC[C@H]6C5)ccc4n3)cc2o1 [Compound 803, 2-(4-fluoro-2-methyl-1,3-benzoxazol-6-yl)-7-[(8aS)-hexahydropyrrolo[1,2-a]pyrazin-2(1H)-yl]-4H-pyrido[1,2-a]pyrimidin-4-one] | **** (an EC1.5x≤0.3 μM is indicated by four stars (****)) | ***** (a fold increase >1.65 is indicated by five stars (*****)) | < 0.1 µM
15 | Cc1cn2nc(-c3cc(=O)n4cc(N5CCC6(CC5)CNC6)ccc4n3)cc2c(C)n1 [Compound 804, 7-(2,7-diazaspiro[3.5]non-7-yl)-2-(4,6-dimethylpyrazolo[1,5-a]pyrazin-2-yl)-4H-pyrido[1,2-a]pyrimidin-4-one] | **** (an EC1.5x≤0.3 μM is indicated by four stars (****)) | ***** (a fold increase >1.65 is indicated by five stars (*****)) | < 0.1 µM
16 | Cc1nc2ccc(-c3cc(=O)n4cc(N5CCN(C)CC5)ccc4n3)cn2n1 [Compound 805, 7-(4-methylpiperazin-1-yl)-2-(2-methyl[1,2,4]triazolo[1,5-a]pyridin-6-yl)-4H-pyrido[1,2-a]pyrimidin-4-one] | *** (an EC1.5× between >0.3 μM and ≤1 μM is indicated by three stars (***)) | ***** (a fold increase >1.65 is indicated by five stars (*****)) | 0.1 to 0.3 µM
17 | Cc1cn2cc(-c3cc(=O)n4cc(N5CCN(C)CC5)ccc4n3)cc(C(F)(F)F)c2n1 [Compound 806, 7-(4-methylpiperazin-1-yl)-2-[2-methyl-8-(trifluoromethyl)imidazo[1,2-a]pyridin-6-yl]-4H-pyrido[1,2-a]pyrimidin-4-one] | **** (an EC1.5x≤0.3 μM is indicated by four stars (****)) | ***** (a fold increase >1.65 is indicated by five stars (*****)) | < 0.1 µM
18 | Cc1cn2cc(-c3cc(=O)n4cc(N5CCN(C)CC5)ccc4n3)cc(C#N)c2n1 [Compound 807, 2-methyl-6-[7-(4-methylpiperazin-1-yl)-4-oxo-4H-pyrido[1,2-a]pyrimidin-2-yl]imidazo[1,2-a]pyridine-8-carbonitrile] | **** (an EC1.5x≤0.3 μM is indicated by four stars (****)) | ***** (a fold increase >1.65 is indicated by five stars (*****)) | < 0.1 µM
19 | Cc1cn2cc(-c3cc(=O)n4cc(N5CCN(C)CC5)ccc4n3)cc(C)c2n1 [Compound 808, 2-(2,8-dimethylimidazo[1,2-a]pyridin-6-yl)-7-(4-methylpiperazin-1-yl)-4H-pyrido[1,2-a]pyrimidin-4-one] | **** (an EC1.5x≤0.3 μM is indicated by four stars (****)) | ***** (a fold increase >1.65 is indicated by five stars (*****)) | < 0.1 µM
